This note sets out measurements from paper PMC2646632 (ACS chemical biology, 2008).

The subject of this experiment is mouse SMN mRNA. Put plainly: Real-time PCR of endogenous SMN mRNA in NSC34 cells. The format is cell-based. The following applies: trichostatin A at 100 nM. On the technique in general: Quantitative PCR measures a nucleic acid by following its amplification.

Molecules are shown by their SMILES.

As for `Nc1nc(N)c2c(OCC3CCN(Cc4ccccc4F)CC3)cccc2n1` [D156844], the “Increase of SMN mRNA” value is given as “two-fold”.

With `CC(/C=C/C(=O)NO)=C\[C@@H](C)C(=O)c1ccc(N(C)C)cc1` [trichostatin A], the “Increase of SMN mRNA” value is reported as “two-fold”.
